The test concerns A. baumannii strain ATCC19606. The format is cell-based, Acinetobacter baumannii. Particulars: ATCC19606, 20 h. As to the method: The in vitro antimicrobial activity of the compounds was determined through microbroth minimum inhibitory concentration (MIC) methodology performed according to the Clinical and Laboratory Standard Institute guidelines (CLSI-M07-A9 January 2012. Methods for Dilution Antimicrobial Susceptibility Tests for Bacteria That Grow Aerobically; Approved Standard Ninth Edition, Clinical and Laboratory Standards Institute, Wayne/PA, US and the CLSI-M100-S24 January 2014. Performance Standards for Antimicrobial Susceptibility Testing; Approved Standard—Fourth Informational Supplement, Clinical and Laboratory Standards Institute, Wayne/PA, US).
The compound stock solution was freshly prepared at 10× the required top concentration for the MIC determination, i.e. at 1280 mg/L, by reconstitution of the dry compound in 50:50 water:DMSO.
Polystyrene non-treated 96 wells microtiter plates were used for preparing panel containing compound serial twofold diluted at two times the final testing concentration (e.g. range from 64 to 0.06 μg/ml) in cation adjusted Mueller Hinton broth medium (CAMHB).
Inoculum was prepared by the “direct colony suspension method”. Colonies of A. baumannii ATCC19606 or clinical isolates were suspended in saline solution and adjusted to 0.5 McFarland, diluted 100 times in CAMHB broth and 50 μl added to each well (final concentration of cells˜5×10^(5) CFU/ml and Final volume/well of 100 μl). Microtiter plates were sealed and incubated at 35±2° C.
MICs values were read after 20 hours of incubation and recorded as the lowest concentration of the antimicrobial that inhibits more or equal to 80% of growth of the organism as detected by the unaided eye and using a microtiter plate optical density reader (OD 600 nm).
Table 1 provides the minimum inhibitory concentration (MIC) in microgram per milliliter of the compounds of present invention obtained against the A. baumannii strain ATCC19606.
As to `CN1C(=O)[C@H](CCCCN)NC(=O)[C@H](CCCN)NCc2cccc(c2)-c2ccccc2CNC(=O)[C@@H]1Cc1c[nH]c2ccccc12` [Example 1, (11S,14S,17S)-14-(4-Amino-butyl)-17-(3-amino-propyl)-11-(1H-indol-3-ylmethyl)-12-methyl-9,12,15,18-tetraaza-tricyclo[18.3.1.0*2,7]tetracosa-1(24),2(7),3,5,20,22-hexaene-10,13,16-trione], the “ATCC19606 MIC (minimum inhibitory concentration)” value is 32 µg/mL.

As to `CN1C(=O)[C@H](CCCCN)NC(=O)[C@H](CCCN)NCc2cccc(c2)-c2c(cccc2C(F)(F)F)CNC(=O)[C@@H]1Cc1c[nH]c2ccccc12` [Example 2, (11S,14S,17S)-14-(4-Amino-butyl)-17-(3-amino-propyl)-11-(1H-indol-3-ylmethyl)-12-methyl-3-trifluoromethyl-9,12,15,18-tetraaza-tricyclo[18.3.1.0*2,7]tetracosa-1(24),2(7),3,5,20,22-hexaene-10,13,16-trione], the “ATCC19606 MIC (minimum inhibitory concentration)” value is 2 µg/mL.

For `CN1C(=O)[C@H](CCCCN)NC(=O)[C@H](CCCN)NCc2cccc(c2)-c2ccc(C(F)(F)F)cc2CNC(=O)[C@@H]1Cc1c[nH]c2ccccc12` [Example 3, (11S,14S,17S)-14-(4-Amino-butyl)-17-(3-amino-propyl)-11-(1H-indol-3-ylmethyl)-12-methyl-5-trifluoromethyl-9,12,15,18-tetraaza-tricyclo[18.3.1.0*2,7]tetracosa-1(24),2(7),3,5,20,22-hexaene-10,13,16-trione], the “ATCC19606 MIC (minimum inhibitory concentration)” value is 0.5 µg/mL.

In the case of `Cc1cccc2c1-c1cccc(c1)CN[C@@H](CCCN)C(=O)N[C@@H](CCCCN)C(=O)N(C)[C@@H](Cc1c[nH]c3ccccc13)C(=O)NC2` [Example 4, (11S,14S,17S)-14-(4-Amino-butyl)-17-(3-amino-propyl)-11-(1H-indol-3-ylmethyl)-3,12-dimethyl-9,12,15,18-tetraaza-tricyclo[18.3.1.0*2,7]tetracosa-1(23),2(7),3,5,20(24),21-hexaene-10,13,16-trione], the “ATCC19606 MIC (minimum inhibitory concentration)” value is 32 µg/mL.

With `CN1C(=O)[C@H](CCCCN)NC(=O)[C@H](CCCN)NCc2cccc(c2)-c2ccc(Cl)cc2CNC(=O)[C@@H]1Cc1c[nH]c2ccccc12` [Example 5, (11S,14S,17S)-14-(4-Amino-butyl)-17-(3-amino-propyl)-5-chloro-11-(1H-indol-3-ylmethyl)-12-methyl-9,12,15,18-tetraaza-tricyclo[18.3.1.0*2,7]tetracosa-1(23),2(7),3,5,20(24),21-hexaene-10,13,16-trione], the “ATCC19606 MIC (minimum inhibitory concentration)” value is 4 µg/mL.

For `CN1C(=O)[C@H](CCCCN)NC(=O)[C@H](CCCN)NCc2cccc(c2)-c2cccc(Cl)c2CNC(=O)[C@@H]1Cc1c[nH]c2ccccc12` [Example 6, (11S,14S,17S)-14-(4-Amino-butyl)-17-(3-amino-propyl)-6-chloro-11-(1H-indol-3-ylmethyl)-12-methyl-9,12,15,18-tetraaza-tricyclo[18.3.1.0*2,7]tetracosa-1(23),2(7),3,5,20(24),21-hexaene-10,13,16-trione], the “ATCC19606 MIC (minimum inhibitory concentration)” value worked out at 32 µg/mL.

Take `Cc1ccc2c(c1)CNC(=O)[C@H](Cc1c[nH]c3ccccc13)N(C)C(=O)[C@H](CCCCN)NC(=O)[C@H](CCCN)NCc1cccc-2c1` [Example 7, (11S,14S,17S)-14-(4-Amino-butyl)-17-(3-amino-propyl)-11-(1H-indol-3-ylmethyl)-5,12-dimethyl-9,12,15,18-tetraaza-tricyclo[18.3.1.0*2,7]tetracosa-1(23),2(7),3,5,20(24),21-hexaene-10,13,16-trione]: the “ATCC19606 MIC (minimum inhibitory concentration)” value amounted to 1 µg/mL.

For the compound `CN1C(=O)[C@H](CCCCN)NC(=O)[C@H](CCCN)NCc2cccc(c2)-c2cc(C(F)(F)F)ccc2CNC(=O)[C@@H]1Cc1c[nH]c2ccccc12` [Example 8, (11S,14S,17S)-14-(4-Amino-butyl)-17-(3-amino-propyl)-11-(1H-indol-3-ylmethyl)-12-methyl-4-trifluoromethyl-9,12,15,18-tetraaza-tricyclo[18.3.1.0*2,7]tetracosa-1(24),2(7),3,5,20,22-hexaene-10,13,16-trione], the “ATCC19606 MIC (minimum inhibitory concentration)” value was 4 µg/mL.

With `COc1ccc2c(c1)CNC(=O)[C@H](Cc1c[nH]c3ccccc13)N(C)C(=O)[C@H](CCCCN)NC(=O)[C@H](CCCN)NCc1cccc-2c1` [Example 9, (11S,14S,17S)-14-(4-Amino-butyl)-17-(3-amino-propyl)-11-(1H-indol-3-ylmethyl)-5-methoxy-12-methyl-9,12,15,18-tetraaza-tricyclo[18.3.1.0*2,7]tetracosa-1(23),2(7),3,5,20(24),21-hexaene-10,13,16-trione], the “ATCC19606 MIC (minimum inhibitory concentration)” value is 4 µg/mL.

Consider `CN1C(=O)[C@H](CCCCN)NC(=O)[C@H](CCCN)NCc2cccc(c2F)-c2ccccc2CNC(=O)[C@@H]1Cc1c[nH]c2ccccc12` [Example 10, (11S,14S,17S)-14-(4-Amino-butyl)-17-(3-amino-propyl)-24-fluoro-11-(1H-indol-3-ylmethyl)-12-methyl-9,12,15,18-tetraaza-tricyclo[18.3.1.0*2,7]tetracosa-1(23),2(7),3,5,20(24),21-hexaene-10,13,16-trione], for which the “ATCC19606 MIC (minimum inhibitory concentration)” value stood at 16 µg/mL.

Take `CN1C(=O)[C@H](CCCCN)NC(=O)[C@H](CCCN)NCc2ccnc(c2)-c2ccc(Cl)cc2CNC(=O)[C@@H]1Cc1c[nH]c2ccccc12` [Example 11, (11S,14S,17S)-14-(4-Amino-butyl)-17-(3-amino-propyl)-5-chloro-11-(1H-indol-3-ylmethyl)-12-methyl-9,12,15,18,23-pentaaza-tricyclo[18.3.1.0*2,7]tetracosa-1(23),2(7),3,5,20(24),21-hexaene-10,13,16-trione]: the “ATCC19606 MIC (minimum inhibitory concentration)” value was 32 µg/mL.

These data come from US11091514B2, “Peptide macrocycles and use thereof in the treatment of bacterial infections” (Hoffmann-La Roche Inc., priority 2017, dated 2021).
